# Reference: paper PMC6032158, “Structure–Activity Relationship of Piplartine and Synthetic Analogues against Schistosoma mansoni and Cytotoxicity to Mammalian Cells” (International Journal of Molecular Sciences, 2018)
# How the values were obtained:
# [1] = tested on: mouse BALB/cN macrophage (J774A.1) cell line; experiment: Cell viability by flow cytometry in macrophages; details: 24 h, 25, 100 and 400 µg/mL, vs DMEM control
# [2] = tested on: 49-day-old S. mansoni adult worms; experiment: In vitro experiments with adult worms of S. mansoni (mortality, motor activity); format: cell-based, Schistosoma mansoni; details: for Dead Worms (%) F / Motor Activity Reduction (%) Significant F / Motor Activity Reduction (%) Slight F: female worms; for Dead Worms (%) M / Motor Activity Reduction (%) Significant M / Motor Activity Reduction (%) Slight M: male worms
# Description: The Belo Horizonte (BH) strain of S. mansoni was maintained in Biomphalaria glabrata snails and Mesocricetus auratus hamsters at the Adolfo Lutz Institute (São Paulo, Brazil) according to standard procedures. Detailed methods for the infection of molluscs and hamsters, as well as for the recovery of parasites, were as described previously. Briefly, the intermediate host snails were exposed to light for approximately 3 h and cercariae of S. mansoni were subsequently harvested. […] All animals were handled in strict accordance with good animal practice as defined by the Animal Use Ethics Committee. The preparations and culture of schistosomes was performed as previously described. Briefly, hamsters were killed 49 days after infection for the recovery of adult schistosomes. Next, fresh adult worm pairs (male and female) were washed and placed in a 24-well culture plate (TPP, St. […] Adult schistosomes were maintained continuously in medium (with or without drugs) for 96 h as described below. In vitro assays in S. mansoni adults were performed with mated males and females. The worm pairs obtained from the infusion hamsters were washed twice with RPMI 1640 medium containing 200 U/mL penicillin, 200 μg/mL streptomycin and 2 μg/mL amphotericin B (Vitrocell, Campinas, Brazil). The mated parasites were then transferred into 24-well cell culture plates (TPP, St. […] Cultures of adult worms were monitored by microscopy or magnifying glass. The effect of the drug was assessed with emphasis on changes in worm motor activity and death of worms as previously described.
# [3] = tested on: murine fibroblast (NIH-3T3) cells; experiment: MTT cytotoxicity assay in murine fibroblasts; format: cell-based
# Description: Next, the medium was removed and various concentrations (25–800 µg/mL) of samples reconstituted in 3% DMSO were applied. DMSO (3%) was used as a control. The plates were incubated for 24 h. Next, 15 µL of MTT solution (5 mg/mL in phosphate buffer) was added to each well and the plates were incubated for 2 h. Medium was discarded and 100 µL of DMSO was added to each well. Absorbance was determined using a spectrophotometer with a microplate reader at 595 nm (Molecular Devices Corporation, Sunnyvale, CA, USA).
smiles,measurement,setting,value
COc1cc(/C=C/C(=O)N(C(=O)NC2CCCCC2)C2CCCCC2)cc(OC)c1OC [Compound 1M],effect on J774A.1 cell viability (in words),[1],"significantly altered (p < 0.05) cell viability in comparison with the negative control, but not in a toxic manner"
same,Dead Worms (%) F,"[2]; 5 µM, 24 h",0%
same,Motor Activity Reduction (%) Significant F,"[2]; 5 µM, 24 h",0%
same,Motor Activity Reduction (%) Slight F,"[2]; 5 µM, 24 h",0%
same,Dead Worms (%) M,"[2]; 5 µM, 24 h",0%
same,Motor Activity Reduction (%) Significant M,"[2]; 5 µM, 24 h",0%
same,Motor Activity Reduction (%) Slight M,"[2]; 5 µM, 24 h",0%
same,Dead Worms (%) F,"[2]; 5 µM, 48 h",0%
same,Motor Activity Reduction (%) Significant F,"[2]; 5 µM, 48 h",0%
same,Motor Activity Reduction (%) Slight F,"[2]; 5 µM, 48 h",0%
same,Dead Worms (%) M,"[2]; 5 µM, 48 h",0%
same,Motor Activity Reduction (%) Significant M,"[2]; 5 µM, 48 h",0%
same,Motor Activity Reduction (%) Slight M,"[2]; 5 µM, 48 h",0%
same,Dead Worms (%) F,"[2]; 5 µM, 72 h",0%
same,Motor Activity Reduction (%) Significant F,"[2]; 5 µM, 72 h",0%
same,Motor Activity Reduction (%) Slight F,"[2]; 5 µM, 72 h",0%
same,Dead Worms (%) M,"[2]; 5 µM, 72 h",0%
same,Motor Activity Reduction (%) Significant M,"[2]; 5 µM, 72 h",0%
same,Motor Activity Reduction (%) Slight M,"[2]; 5 µM, 72 h",0%
same,Dead Worms (%) F,"[2]; 5 µM, 96 h",0%
same,Motor Activity Reduction (%) Significant F,"[2]; 5 µM, 96 h",0%
same,Motor Activity Reduction (%) Slight F,"[2]; 5 µM, 96 h",0%
same,Dead Worms (%) M,"[2]; 5 µM, 96 h",0%
same,Motor Activity Reduction (%) Significant M,"[2]; 5 µM, 96 h",0%
same,Motor Activity Reduction (%) Slight M,"[2]; 5 µM, 96 h",0%
same,Dead Worms (%) F,"[2]; 10 µM, 24 h",0%
same,Motor Activity Reduction (%) Significant F,"[2]; 10 µM, 24 h",0%
same,Motor Activity Reduction (%) Slight F,"[2]; 10 µM, 24 h",0%
same,Dead Worms (%) M,"[2]; 10 µM, 24 h",0%
same,Motor Activity Reduction (%) Significant M,"[2]; 10 µM, 24 h",0%
same,Motor Activity Reduction (%) Slight M,"[2]; 10 µM, 24 h",0%
same,Dead Worms (%) F,"[2]; 10 µM, 48 h",0%
same,Motor Activity Reduction (%) Significant F,"[2]; 10 µM, 48 h",0%
same,Motor Activity Reduction (%) Slight F,"[2]; 10 µM, 48 h",0%
same,Dead Worms (%) M,"[2]; 10 µM, 48 h",0%
same,Motor Activity Reduction (%) Significant M,"[2]; 10 µM, 48 h",0%
same,Motor Activity Reduction (%) Slight M,"[2]; 10 µM, 48 h",0%
same,Dead Worms (%) F,"[2]; 10 µM, 72 h",0%
same,Motor Activity Reduction (%) Significant F,"[2]; 10 µM, 72 h",0%
same,Motor Activity Reduction (%) Slight F,"[2]; 10 µM, 72 h",0%
same,Dead Worms (%) M,"[2]; 10 µM, 72 h",0%
same,Motor Activity Reduction (%) Significant M,"[2]; 10 µM, 72 h",0%
same,Motor Activity Reduction (%) Slight M,"[2]; 10 µM, 72 h",0%
same,Dead Worms (%) F,"[2]; 10 µM, 96 h",0%
same,Motor Activity Reduction (%) Significant F,"[2]; 10 µM, 96 h",0%
same,Motor Activity Reduction (%) Slight F,"[2]; 10 µM, 96 h",0%
same,Dead Worms (%) M,"[2]; 10 µM, 96 h",0%
same,Motor Activity Reduction (%) Significant M,"[2]; 10 µM, 96 h",0%
same,Motor Activity Reduction (%) Slight M,"[2]; 10 µM, 96 h",0%
same,Dead Worms (%) F,"[2]; 25 µM, 24 h",0%
same,Motor Activity Reduction (%) Significant F,"[2]; 25 µM, 24 h",0%
same,Motor Activity Reduction (%) Slight F,"[2]; 25 µM, 24 h",0%
same,Dead Worms (%) M,"[2]; 25 µM, 24 h",0%
same,Motor Activity Reduction (%) Significant M,"[2]; 25 µM, 24 h",0%
same,Motor Activity Reduction (%) Slight M,"[2]; 25 µM, 24 h",0%
same,Dead Worms (%) F,"[2]; 25 µM, 48 h",0%
same,Motor Activity Reduction (%) Significant F,"[2]; 25 µM, 48 h",0%
same,Motor Activity Reduction (%) Slight F,"[2]; 25 µM, 48 h",0%
same,Dead Worms (%) M,"[2]; 25 µM, 48 h",0%
same,Motor Activity Reduction (%) Significant M,"[2]; 25 µM, 48 h",0%
same,Motor Activity Reduction (%) Slight M,"[2]; 25 µM, 48 h",0%
same,Dead Worms (%) F,"[2]; 25 µM, 72 h",0%
same,Motor Activity Reduction (%) Significant F,"[2]; 25 µM, 72 h",0%
same,Motor Activity Reduction (%) Slight F,"[2]; 25 µM, 72 h",0%
same,Dead Worms (%) M,"[2]; 25 µM, 72 h",0%
same,Motor Activity Reduction (%) Significant M,"[2]; 25 µM, 72 h",0%
same,Motor Activity Reduction (%) Slight M,"[2]; 25 µM, 72 h",0%
same,Dead Worms (%) F,"[2]; 25 µM, 96 h",0%
same,Motor Activity Reduction (%) Significant F,"[2]; 25 µM, 96 h",0%
same,Motor Activity Reduction (%) Slight F,"[2]; 25 µM, 96 h",0%
same,Dead Worms (%) M,"[2]; 25 µM, 96 h",0%
same,Motor Activity Reduction (%) Significant M,"[2]; 25 µM, 96 h",0%
same,Motor Activity Reduction (%) Slight M,"[2]; 25 µM, 96 h",0%
same,Dead Worms (%) F,"[2]; 50 µM, 24 h",0%
same,Motor Activity Reduction (%) Significant F,"[2]; 50 µM, 24 h",0%
same,Motor Activity Reduction (%) Slight F,"[2]; 50 µM, 24 h",0%
same,Dead Worms (%) M,"[2]; 50 µM, 24 h",0%
same,Motor Activity Reduction (%) Significant M,"[2]; 50 µM, 24 h",0%
same,Motor Activity Reduction (%) Slight M,"[2]; 50 µM, 24 h",0%
same,Dead Worms (%) F,"[2]; 50 µM, 48 h",0%
same,Motor Activity Reduction (%) Significant F,"[2]; 50 µM, 48 h",0%
same,Motor Activity Reduction (%) Slight F,"[2]; 50 µM, 48 h",0%
same,Dead Worms (%) M,"[2]; 50 µM, 48 h",0%
same,Motor Activity Reduction (%) Significant M,"[2]; 50 µM, 48 h",0%
same,Motor Activity Reduction (%) Slight M,"[2]; 50 µM, 48 h",0%
same,Dead Worms (%) F,"[2]; 50 µM, 72 h",0%
same,Motor Activity Reduction (%) Significant F,"[2]; 50 µM, 72 h",0%
same,Motor Activity Reduction (%) Slight F,"[2]; 50 µM, 72 h",0%
same,Dead Worms (%) M,"[2]; 50 µM, 72 h",0%
same,Motor Activity Reduction (%) Significant M,"[2]; 50 µM, 72 h",0%
same,Motor Activity Reduction (%) Slight M,"[2]; 50 µM, 72 h",0%
same,Dead Worms (%) F,"[2]; 50 µM, 96 h",0%
same,Motor Activity Reduction (%) Significant F,"[2]; 50 µM, 96 h",0%
same,Motor Activity Reduction (%) Slight F,"[2]; 50 µM, 96 h",0%
same,Dead Worms (%) M,"[2]; 50 µM, 96 h",0%
same,Motor Activity Reduction (%) Significant M,"[2]; 50 µM, 96 h",0%
same,Motor Activity Reduction (%) Slight M,"[2]; 50 µM, 96 h",0%
same,activity against S. mansoni adult worms (in words),"[2]; analogues 50, 25, 10 and 5 μM, piplartine 5 and 10 μM, up to 96 h",did not present biological activity against the S. mansoni parasite
same,effect on NIH-3T3 cell viability (in words),"[3]; MTT, 24 h exposure, 25 to 800 µg/mL",considerable reduction in cell viability at concentrations of 400 and 800 μg/mL
same,Emax at 800 µg/mL,"[3]; Mus musculus, NIH3T3, 24 h, decrease in cell viability at the maximum concentration tested (800 μg/mL), NIH-3T3, 24 h",70.9 ± 1.2%
